Test results reported in patent US9340559B2, “Proteasome inhibitor delanzomib for use in the treatment of lupus” (Cephalon, Inc., priority 2011, dated 2016).

Key:
NZM mice [1] = experiment: Antinuclear antibody (ANA) ELISA (anti-chromatin, anti-Smith Ag, anti-dsDNA), serum of NZM mice (Example 2); type: in vivo, mouse
NZM mice [2] = experiment: Collagen type-I cross-linker (CTx) bone resorption biomarker ELISA, serum of NZM mice; type: in vivo, mouse; details: G6 50 mg/kg ip, 1× wk
Protocol: Assay is performed as instructed by the manufacturer. Briefly, biotinylated ratlaps antigen is first added in each well of a 96-well ELISA plate. This plate is covered and incubated for 30 minutes at RT. Plate is washed five times with washing solution and incubated with standards or unknown samples in appropriate wells followed by primary Ab. Incubate overnight for 18 hours at 4° C. followed by washing with buffer. Secondary incubation includes a peroxidase conjugated goat anti-rabbit IgG added to each well and incubation at RT for 1 hour. Incubation with chromogenic substrate solution for 15 minutes at RT in the dark develops the plate for analysis. Stopping solution halts the reaction, absorbance is measured within 2 hours at 450 nm.

NZM mice [3] = experiment: Serum C3 complement ELISA, NZM mice (Example 2)
NZM mice [4] = experiment: Survival, NZM lupus nephritis model, ip dosing (Example 2); type: in vivo, mouse; details: G6 50 mg/kg ip, 1× wk
NZM mice [5] = experiment: Antibody secreting B-cell Elispot (anti-chromatin, total IgG ASC), spleens of NZM mice (Example 2); type: in vivo, mouse
Protocol: FIG. 34 depicts the frequency of anti-chromatin antibody secreting cells in the spleens of NZM mice. NZM treated mice spleens were processed for splenocytes for ex vivo Elispot assays. Elispot wells were coated with 10 μg/mL of boiled chicken chromatin or ovalbumin protein. Fresh, whole splenocytes were added to each well at 50,000 cells per well in cell culture medium. Cells were incubated overnight at 37° C. Developed wells provided spots that were counted as frequency of ASCs per million splenocytes.
FIG. 35 depicts the frequency of total IgG antibody secreting cells in the spleens of NZM mice. NZM treated mice spleens were processed for splenocytes for ex vivo Elispot assays. Elispot wells were coated with 10 μg/mL of anti-mouse IgG, IgH, and IgL chains. Fresh, whole splenocytes were added to each well at 50,000 cells per well in cell culture medium. Cells were incubated overnight at 37° C. Developed wells provided spots that were counted as frequency of ASCs per million splenocytes.
B-cell Elispot components are ordered from MabTech (Nacka Strand, Sweden) and nitrocellulose IP filter plates are ordered from Millipore (Billerica, Mass.). Elispot wells are coated with either purified bovine thymus dsDNA (Sigma), purified bovine Smith antigen (GenWay) or boiled filtered purified chicken chromatin from lysed chicken red blood cells (Rockland, Gilbertsville, Pa.) at 10 μg/mL. Spleens are processed using glass homogenization (frosted slides). Dispersed cell contents are washed in sterile HBSS and RBCs lysed using 1×RBC lysis buffer (BioLegend, Cat #420301). Processed splenocytes are added to each well and are not stimulated with lipopolysaccharide (LPS) to avoid skewing of true ex vivo frequencies of antibody-secreting cell types (ASCs). Anti-mouse pan-IgG is used as a positive control for total IgG producing ASCs and is used to normalize results. Frequencies for each antigen are identified in an initial test phase for each model. For chromatin and total IgG only, 30,000 splenocytes are added to each well; for Smith antigen and dsDNA, 500,000 cells are added to each well. Different numbers of splenocytes are added for different antigens due to saturation limits of spot frequencies per well. B-cell Elispots are incubated overnight at 37° C. To develop each assay, secondary antibody is added to each well, incubated, washed and alkaline phosphatase strepavidin (Jackson ImmunoResearch, West Grove, Pa.) is used as the conjugate; substrate used is BCIP-NBT (MabTech, Cincinnati, Ohio). Plates are developed until spots are visible. All Elispot analyses are performed using an Immunospot C.T.L. scanner and Biospot software (Cellular Technology Ltd., Shaker Heights, Ohio). Results are shown as values from which media and cells only wells are subtracted. Some values are negative due to high background.

NZM mice [6] = experiment: Splenomegaly (spleen mass), NZM mice (Example 2); type: in vivo, mouse
NZM mice [7] = experiment: Body weight progression, NZM mice (Example 2); type: in vivo, mouse; details: G6 50 mg/kg ip, 1× wk
NZM mice [8] = experiment: Renal histopathology scoring (kidney IC-GN), NZM mice (Example 2); type: in vivo, mouse
Protocol: For histological analyses, the left kidney from each animal is removed and fixed in 10% buffered neutral formalin (EMD) for 48 hours on an orbital rocker at 25° C., then washed overnight with running dH2O and stored in 70% ethanol at 4° C. until ready to be processed. Kidney stains used for histological analyses included hematoxylin and eosin (H&E), Periodic Acid Schiff (PAS) and Trichrome stains (Wistar Institute, Philadelphia, Pa.). All 3 stained sections are used by the pathologist for scoring purposes. All histological scoring is performed blinded and by an independent board certified veterinary medical pathologist (Julie Engiles, VMD, DACVP). Multiple stains are used to determine score values. Images in FIG. 39 show worst affected area of section selected blindly by the pathologist.
Kidney IC-GN Scoring Method (Smith, Dong et al. 2007):
1. Glomerular cellularity—Score 1-5: Null, low, moderate, high, severe
2. Glomerular necrosis—Score 1-5: Null, low, moderate, high, severe
3. Glomerulosclerosis—Score 1-5: Null, low, moderate, high, severe
4. Interstitial infiltration—Score 1-5: Null, low, moderate, high, severe
5. Tubular atrophy—Score 1-5: Null, low, moderate, high, severe
6. Interstitial fibrosis—Score 1-5: Null, low, moderate, high, severe
7. Vasculitis—Score 1-5: Null, low, moderate, high, severe
Specific Pathologist Definitions: • Necrosis is defined by the presence of nuclear debris/pyknosis within the glomerular tuft indicative of “necrosis.” In many samples, this is a very mild, rare finding within only a very few segments of the glomerular tuft. Also consider effacement of the glomerular tuft by PAS positive, Trichrome negative material necrosis. • Glomerular sclerosis is defined by increased fibroplasia or fibrosis within the glomerular tuft or capsule. […] Most of the vascular changes are mild and could be considered “arteriosclerosis” characterized by proliferation of the smooth muscle cells, and hyalinization of the extracellular matrix. This change may reflect hypertension secondary to glomerular pathology. In very few animals is there overt “vasculitis.” Most inflammatory changes are within the walls of the blood vessels, with little to no damage to the endothelium, and no overt hemorrhage/fibrin leakage. Many also have perivascular rims of fibroblasts.

NZM mice [9] = type: in vivo, mouse; details: G6 50 mg/kg ip, 1× wk

O=P1(N(CCCl)CCCl)NCCCO1 (centres unmarked) [CTX, Cyclophosphamide]
ANA Smith Ag AUC, percent change vs vehicle (NZM mice [1]; G6 50 mg/kg ip, 1× wk): −86% | ANA chromatin AUC, percent change vs vehicle (NZM mice [1]; G6 50 mg/kg ip, 1× wk): −51% | ANA dsDNA AUC, percent change vs vehicle (NZM mice [1]; G6 50 mg/kg ip, 1× wk): −66% | reduction in anti-chromatin Ab relative to vehicle, significance (NZM mice [1]; bortezomib, Dex or CTX treatment groups): none of which was significant | Serum CTx linker AUC, percent change vs vehicle (NZM mice [2]): −26% | Serum C3 complement AUC, percent change vs vehicle (NZM mice [3]; G6 50 mg/kg ip, 1× wk): −18% | p, serum C3 complement levels vs G8 Dex 1.5 mg/kg 3× wk ip (NZM mice [3]; G7 50 mg/kg 1× wk ip): p < 0.01 | EOS survival, percent live mice from original number (NZM mice [4]): 70% | ASC chromatin EOS, percent change vs vehicle (NZM mice [5]; G6 50 mg/kg ip, 1× wk): −100% | ASC total IgG EOS, percent change vs vehicle (NZM mice [5]; G6 50 mg/kg ip, 1× wk): −93% | p, frequency of anti-chromatin antibody secreting cells in spleen vs G5 Bortezomib 0.3 mg/kg 1× wk ip (NZM mice [5]; G7 50 mg/kg 1× wk ip): P < 0.05 | p, frequency of anti-chromatin antibody secreting cells in spleen vs G6 Bortezomib 0.3 mg/kg 2× wk ip (NZM mice [5]; G7 50 mg/kg 1× wk ip): p < 0.05 | p, frequency of anti-chromatin antibody secreting cells in spleen vs G9 Vehicle 1× wk ip (NZM mice [5]; G7 50 mg/kg 1× wk ip): p < 0.01 | p, frequency of total IgG antibody secreting cells in spleen vs G5 Bortezomib 0.3 mg/kg 1× wk ip (NZM mice [5]; G7 50 mg/kg 1× wk ip): p < 0.001 | p, frequency of total IgG antibody secreting cells in spleen vs G6 Bortezomib 0.3 mg/kg 2× wk ip (NZM mice [5]; G7 50 mg/kg 1× wk ip): p < 0.001 | p, frequency of total IgG antibody secreting cells in spleen vs G8 Dex 1.5 mg/kg 3× wk ip (NZM mice [5]; G7 50 mg/kg 1× wk ip): P < 0.01 | p, frequency of total IgG antibody secreting cells in spleen vs G9 Vehicle 1× wk ip (NZM mice [5]; G7 50 mg/kg 1× wk ip): p < 0.01 | Spleen mass EOS, percent change vs vehicle (NZM mice [6]; G6 50 mg/kg ip, 1× wk): −42% | spleen mass compared to once-a-week bortezomib (NZM mice [6]; p<0.05): reduced spleen mass significantly | Body mass AUC, percent change vs vehicle (NZM mice [7]): +4% | p, glomerular cellularity (GC) vs G7 Vehicle (NZM mice [8]; G5 50 mg/kg 1× wk): p < 0.05 | Kidney glomerular cellularity, percent change vs vehicle (NZM mice [8]; G6 50 mg/kg ip, 1× wk): −7% | Kidney glomerular necrosis, percent change vs vehicle (NZM mice [8]; G6 50 mg/kg ip, 1× wk): 42% | Kidney glomerulosclerosis, percent change vs vehicle (NZM mice [8]; G6 50 mg/kg ip, 1× wk): 34% | Kidney interstitial fibrosis, percent change vs vehicle (NZM mice [8]; G6 50 mg/kg ip, 1× wk): 11% | Kidney interstitial infiltration, percent change vs vehicle (NZM mice [8]; G6 50 mg/kg ip, 1× wk): 11% | Kidney tubular atrophy, percent change vs vehicle (NZM mice [8]; G6 50 mg/kg ip, 1× wk): 18% | Kidney vasculitis, percent change vs vehicle (NZM mice [8]; G6 50 mg/kg ip, 1× wk): 9% | Cytokine IL-12 AUC, percent change vs vehicle (NZM mice [9]): −78%
